Data as given in patent US11299497B2, “Substituted tetrahydropyran dihydrothienopyrimidines and their use as phosphodiesterase inhibitors” (UNION therapeutics A/S, priority 2017, dated 2022).

Columns and labels:
[1] = molecular target: human PDE41 Dcatalytic domain (UniProt no. Q08499 [S380-L740]) (Homo sapiens (Human), UniProt Q08499); assay: PDE4 Assay (TR-FRET, FAM-cAMP cleavage); type: biochemical; settings: human PDE4D catalytic domain, cAMP / FAM-cAMP substrate, read-out: PDE4 IC50 range
Procedure: The human PDE41 Dcatalytic domain (UniProt no. Q08499 [S380-L740]) was incubated with a mixture of non-labelled cAMP (cyclic adenosine monophosphate) and fluorescein amidite (FAM) conjugated cAMP and titrated test or reference compound. Following brief incubation the enzymatic reaction was stopped by addition of binding buffer containing nanoparticles with immobilized trivalent metal ions capable of binding 1) AMP phospho groups and 2) terbium (Tb) donor fluorophores. Subsequent excitation of the Tb donor triggers time-resolved FRET to adjacent FAM acceptor molecules resulting in light emission. In the presence of a PDE4 inhibitor, AMP generation was reduced resulting in a lower fluorescence signal. The cAMP phosphodiester is not bound by the detection system.
The results were calculated as the molar concentrations resulting in 50/inhibition of the substrate cleavage compared to controls samples, and are expressed as IC50 (nM).

[2] = tested on: TNF-α release, human peripheral blood mononuclear cells (PBMC); assay: TNF-α Release in LPS-stimulated PBMC; type: cell-based; settings: 30 minutes pre-incubation, lipopolysaccharide stimulation 18 hours, TR-FRET, read-out: TNF-α IC50 range
Procedure: Human peripheral blood mononuclear cells (PBMC) were isolated from buffy coats. The blood is mixed with saline at a ratio of 1:1, and the PBMC were isolated using Lymphoprep Tube™ (Nycomed, Norway). The PBMC were suspended in RPMI1640 with 0.5% human serum albumin, pen/strep and 2 mM L-glutamine at a concentration of 5×105 c/ml. The cells were pre-incubated for 30 minutes with the test compounds in 96 well tissue culture plates and stimulated for 18 hours with lipopolysaccharide 1 mg/ml (Sigma). TNF-α concentration in the supernatants was measured using homogeneous time-resolved fluorescence resonance (TR-FRET). The assay is quantified by measuring fluorescence at 665 nm (proportional to TNF-α concentration) and 620 nm (control).
Results were expressed as IC50 values calculated from inhibition curves using as positive controls the secretion in LPS stimulated wells and as negative controls the secretion in unstimulated cells.

human PDE41 Dcatalytic domain, sequence (Q08499 380-740): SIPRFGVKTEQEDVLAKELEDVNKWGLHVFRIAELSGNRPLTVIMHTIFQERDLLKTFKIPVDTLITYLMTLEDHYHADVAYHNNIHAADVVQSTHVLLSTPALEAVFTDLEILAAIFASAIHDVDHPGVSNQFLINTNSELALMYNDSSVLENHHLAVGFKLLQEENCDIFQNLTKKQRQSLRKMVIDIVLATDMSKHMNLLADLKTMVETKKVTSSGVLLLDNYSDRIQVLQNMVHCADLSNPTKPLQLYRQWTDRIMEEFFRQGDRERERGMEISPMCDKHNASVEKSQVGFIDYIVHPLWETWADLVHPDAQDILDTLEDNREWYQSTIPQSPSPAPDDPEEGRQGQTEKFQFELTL

SMILES | IC50 [1] | IC50 [2]
CN(CCC1CCOCC1)c1nc2c(c(NC3CCOCC3)n1)[S+]([O-])CC2 (stereo in doubt) [Example 1, (5R)—N2-methyl-5-oxido-N4-tetrahydropyran-4-yl-N2-(2-tetrahydropyran-4-ylethyl)-6,7-dihydrothieno[3,2-d]pyrimidin-5-ium-2,4-diamine] | 10 to 50 nM | 10 to 50 nM
CCN(CCC1CCOCC1)c1nc2c(c(NC3CCOCC3)n1)[S@@+]([O-])CC2 [Example 2, (5R)—N2-ethyl-5-oxido-N4-tetrahydropyran-4-yl-N2-(2-tetrahydropyran-4-ylethyl)-6,7-dihydrothieno[3,2-d]pyrimidin-5-ium-2,4-diamine] | < 10 nM | < 10 nM
CN(CCC1CCOCC1)c1nc2c(c(NC(C)(C)C)n1)[S+]([O-])CC2 (stereo not drawn) [Example 3, N4-tert-butyl-N2-methyl-5-oxido-N2-(2-tetrahydropyran-4-ylethyl)-6,7-dihydrothieno[3,2-d]pyrimidin-5-ium-2,4-diamine] | 10 to 50 nM | 10 to 50 nM
CCCNc1nc(N(C)CCC2CCOCC2)nc2c1[S+]([O-])CC2 (stereo not drawn) [Example 4, N2-methyl-5-oxido-N4-propyl-N2-(2-tetrahydropyran-4-ylethyl)-6,7-dihydrothieno[3,2-d]pyrimidin-5-ium-2,4-diamine] | 50 to 100 nM | 10 to 50 nM
CC(C)Nc1nc(N(C)CCC2CCOCC2)nc2c1[S+]([O-])CC2 (stereo not drawn) [Example 5, N4-isopropyl-N2-methyl-5-oxido-N2-(2-tetrahydropyran-4-ylethyl)-6,7-dihydrothieno[3,2-d]pyrimidin-5-ium-2,4-diamine] | 10 to 50 nM | 10 to 50 nM
CCCCNc1nc(N(C)CCC2CCOCC2)nc2c1[S+]([O-])CC2 (stereo not drawn) [Example 6, N4-butyl-N2-methyl-5-oxido-N2-(2-tetrahydropyran-4-ylethyl)-6,7-dihydrothieno[3,2-d]pyrimidin-5-ium-2,4-diamine] | 10 to 50 nM | 10 to 50 nM
CC(C)CNc1nc(N(C)CCC2CCOCC2)nc2c1[S+]([O-])CC2 (stereo not drawn) [Example 7, N4-isobutyl-N2-methyl-5-oxido-N2-(2-tetrahydropyran-4-ylethyl)-6,7-dihydrothieno[3,2-d]pyrimidin-5-ium-2,4-diamine] | 10 to 50 nM | 10 to 50 nM
CN(CCC1CCOCC1)c1nc2c(c(NC3(C)CCC3)n1)[S+]([O-])CC2 (stereo not drawn) [Example 8, N2-methyl-N4-(1-methylcyclobutyl)-5-oxido-N2-(2-tetrahydropyran-4-ylethyl)-6,7-dihydrothieno[3,2-d]pyrimidin-5-ium-2,4-diamine] | 10 to 50 nM | < 10 nM
CN(CCC1CCOCC1)c1nc2c(c(NC3CCC3)n1)[S+]([O-])CC2 (stereo not drawn) [Example 9, N4-cyclobutyl-N2-methyl-5-oxido-N2-(2-tetrahydropyran-4-ylethyl)-6,7-dihydrothieno[3,2-d]pyrimidin-5-ium-2,4-diamine] | 10 to 50 nM | 10 to 50 nM
CN(CCC1CCOCC1)c1nc2c(c(NC3(C#N)CCC3)n1)[S+]([O-])CC2 (stereo not drawn) [Example 10, 1-[[2-[methyl(2-tetrahydropyran-4-ylethyl)amino]-5-oxido-6,7-dihydrothieno[3,2-d]pyrimidin-5-ium-4-yl]amino]cyclobutanecarbonitrile] | 10 to 50 nM | 10 to 50 nM
CN(CCC1CCOCC1)c1nc2c(c(NC3(C#N)CC3)n1)[S+]([O-])CC2 (stereo not drawn) [Example 11, 1-[[2-[methyl(2-tetrahydropyran-4-ylethyl)amino]-5-oxido-6,7-dihydrothieno[3,2-d]pyrimidin-5-ium-4-yl]amino]cyclopropanecarbonitrile] | 10 to 50 nM | 10 to 50 nM
CC[C@H](C)Nc1nc(N(C)CCC2CCOCC2)nc2c1[S+]([O-])CC2 (stereo partly drawn) [Example 12, N2-methyl-N4-[(1S)-1-methylpropyl]-5-oxido-N2-(2-tetrahydropyran-4-ylethyl)-6,7-dihydrothieno[3,2-d]pyrimidin-5-ium-2,4-diamine] | 10 to 50 nM | 10 to 50 nM
CC[C@@H](C)Nc1nc(N(C)CCC2CCOCC2)nc2c1[S+]([O-])CC2 (stereo partly drawn) [Example 13, N2-methyl-N4-[(1R)-1-methylpropyl]-5-oxido-N2-(2-tetrahydropyran-4-ylethyl)-6,7-dihydrothieno[3,2-d]pyrimidin-5-ium-2,4-diamine] | 10 to 50 nM | < 10 nM
CN(CCC1CCOCC1)c1nc2c(c(NC3(C)CC3)n1)[S+]([O-])CC2 (stereo not drawn) [Example 14, N2-methyl-N4-(1-methylcyclopropyl)-5-oxido-N2-(2-tetrahydropyran-4-ylethyl)-6,7-dihydrothieno[3,2-d]pyrimidin-5-ium-2,4-diamine] | 10 to 50 nM | < 10 nM
CN(CCC1CCOCC1)c1nc2c(c(NC3CC4(COC4)C3)n1)[S+]([O-])CC2 (stereo not drawn) [Example 15, N2-methyl-N4-(6-oxaspiro[3.3]heptan-2-yl)-5-oxido-N2-(2-tetrahydropyran-4-ylethyl)-6,7-dihydrothieno[3,2-d]pyrimidin-5-ium-2,4-diamine] | 10 to 50 nM | < 10 nM
COc1cccc(Nc2nc(N(C)CCC3CCOCC3)nc3c2[S+]([O-])CC3)c1 (stereo not drawn) [Example 16, N4-(3-methoxyphenyl)-N2-methyl-5-oxido-N2-(2-tetrahydropyran-4-ylethyl)-6,7-dihydrothieno[3,2-d]pyrimidin-5-ium-2,4-diamine] | < 10 nM | < 10 nM
CN(CCC1CCOCC1)c1nc2c(c(NC3CCCCC3)n1)[S+]([O-])CC2 (stereo not drawn) [Example 17, N4-cyclohexyl-N2-methyl-5-oxido-N2-(2-tetrahydropyran-4-ylethyl)-6,7-dihydrothieno[3,2-d]pyrimidin-5-ium-2,4-diamine] | < 10 nM | < 10 nM
CN(CCC1CCOCC1)c1nc2c(c(NC(C)(C)CO)n1)[S+]([O-])CC2 (stereo not drawn) [Example 18, 2-methyl-2-[[2-[methyl(2-tetrahydropyran-4-ylethyl)amino]-5-oxido-6,7-dihydrothieno[3,2-d]pyrimidin-5-ium-4-yl]amino]propan-1-ol] | > 100 nM | > 100 nM
CCNc1nc(N(C)CCC2CCOCC2)nc2c1[S+]([O-])CC2 (stereo not drawn) [Example 19, N4-ethyl-N2-methyl-5-oxido-N2-(2-tetrahydropyran-4-ylethyl)-6,7-dihydrothieno[3,2-d]pyrimidin-5-ium-2,4-diamine] | > 100 nM | 50 to 100 nM
CN(CCC1CCOCC1)c1nc2c(c(NC3CCCC3)n1)[S+]([O-])CC2 (stereo not drawn) [Example 20, N4-cyclopentyl-N2-methyl-5-oxido-N2-(2-tetrahydropyran-4-ylethyl)-6,7-dihydrothieno[3,2-d]pyrimidin-5-ium-2,4-diamine] | < 10 nM | < 10 nM
CN(CCC1CCOCC1)c1nc2c(c(NC3COC3)n1)[S+]([O-])CC2 (stereo not drawn) [Example 21, N2-methyl-N4-(oxetan-3-yl)-5-oxido-N2-(2-tetrahydropyran-4-ylethyl)-6,7-dihydrothieno[3,2-d]pyrimidin-5-ium-2,4-diamine] | > 100 nM | 50 to 100 nM
CN(CCC1CCOCC1)c1nc2c(c(NC3(CO)CCCC3)n1)[S+]([O-])CC2 (stereo not drawn) [Example 22, [1-[[2-[methyl(2-tetrahydropyran-4-ylethyl)amino]-5-oxido-6,7-dihydrothieno[3,2-d]pyrimidin-5-ium-4-yl]amino]cyclopentyl]methanol] | > 100 nM | > 100 nM
CN(CCC1CCOCC1)c1nc2c(c(NC3(CO)CCC3)n1)[S+]([O-])CC2 (stereo not drawn) [Example 23, [1-[[2-[methyl(2-tetrahydropyran-4-ylethyl)amino]-5-oxido-6,7-dihydrothieno[3,2-d]pyrimidin-5-ium-4-yl]amino]cyclobutyl]methanol] | > 100 nM | > 100 nM
CN(CCC1CCOCC1)c1nc2c(c(NC3(CO)CC3)n1)[S+]([O-])CC2 (stereo not drawn) [Example 24, [1-[[2-[methyl(2-tetrahydropyran-4-ylethyl)amino]-5-oxido-6,7-dihydrothieno[3,2-d]pyrimidin-5-ium-4-yl]amino]cyclopropyl]methanol] | > 100 nM | > 100 nM
